The source made the active and inactive calls. No cut-off for these calls is given here.
Tests used:
BMDM [1] = test: Inhibition of RANKL-mediated decrease in Mafb mRNA expression in ICR mouse BMDM at 5 uM by qRT-PCR method; type: functional, cell-based
BMDM [2] = test: Inhibition of M-CSF/RANKL-induced osteoclast differentiation in ICR mouse BMDM assessed as decrease in number of cells with nuclear Nfatc1 at 5 uM by rhodamine-conjugated phalloidin/DAPI staining-based immunofluorescence method; type: functional, cell-based
BMDM [3] = test: Inhibition of RANKL-mediated decrease in Irf8 mRNA expression in ICR mouse BMDM at 5 uM by qRT-PCR method; type: functional, cell-based
Osteoclast = test: Effect on bone-resorbing function of osteoclast derived from M-CSF/RANKL-induced ICR mouse BMDM assessed as change in size of resorption pit area at 5 uM after 2 days by hematoxylin staining-based assay; type: functional, cell-based
[4] = biological target: MAP kinase p38 (Mus musculus) (UniProt P47811+O08911+Q9WUI1+Q9Z1B7); test: Inhibition of RANKL-induced p38 phosphorylation in ICR mouse BMDM at 5 uM preincubated for 1 hr followed by RANKL stimulation measured after 5 to 30 mins by Western blot method; type: cell-based
BMDM [5] = test: Inhibition of M-CSF/RANKL-induced osteoclast differentiation in ICR mouse BMDM assessed as downregulation of Dcstamp mRNA expression at 5 uM by qRT-PCR method; type: functional, cell-based
BMDM [6] = test: Inhibition of M-CSF/RANKL-induced osteoclast differentiation in ICR mouse BMDM assessed as downregulation of Nfatc1 mRNA expression at 5 uM by qRT-PCR method; type: functional, cell-based
BMDM [7] = test: Inhibition of RANKL-mediated decrease in Bcl6 mRNA expression in ICR mouse BMDM at 5 uM by qRT-PCR method; type: functional, cell-based
BMDM [8] = test: Inhibition of RANKL-induced ERK phosphorylation in ICR mouse BMDM at 5 uM preincubated for 1 hr followed by RANKL stimulation measured after 5 to 30 mins by Western blot method; type: cell-based
BMDM [9] = test: Inhibition of M-CSF/RANKL-induced osteoclast differentiation in ICR mouse BMDM assessed as downregulation of Nfatc1 expression at 5 uM after 3 days by Western blot method; type: functional, cell-based
BMDM [10] = test: Inhibition of M-CSF/RANKL-induced osteoclast differentiation in ICR mouse BMDM at 1 uM after 4 days by TRAP staining method relative to control; type: functional; settings: 96 h
BMDM [11] = test: Growth inhibition of ICR mouse BMDM up to 10 uM after 3 days by MTT assay; type: cell-based; settings: 72 h
BMDM [12] = test: Inhibition of M-CSF/RANKL-induced osteoclast differentiation in ICR mouse BMDM assessed as downregulation of Ctsk mRNA expression at 5 uM by qRT-PCR method; type: functional, cell-based
BMDM [13] = test: Inhibition of M-CSF/RANKL-induced osteoclast differentiation in ICR mouse BMDM at 5 to 10 uM after 4 days by TRAP staining method; type: functional, cell-based
[14] = biological target: RAC-alpha serine/threonine-protein kinase (Mus musculus) (UniProt P31750); test: Inhibition of RANKL-induced AKT phosphorylation in ICR mouse BMDM at 5 uM preincubated for 1 hr followed by RANKL stimulation measured after 30 mins by Western blot method; type: cell-based
BMDM [15] = test: Inhibition of M-CSF/RANKL-induced osteoclast differentiation in ICR mouse BMDM assessed as downregulation of Acp5 mRNA expression at 5 uM by qRT-PCR method; type: functional, cell-based

RAC-alpha serine/threonine-protein kinase (Mus musculus), sequence (P31750 whole entry): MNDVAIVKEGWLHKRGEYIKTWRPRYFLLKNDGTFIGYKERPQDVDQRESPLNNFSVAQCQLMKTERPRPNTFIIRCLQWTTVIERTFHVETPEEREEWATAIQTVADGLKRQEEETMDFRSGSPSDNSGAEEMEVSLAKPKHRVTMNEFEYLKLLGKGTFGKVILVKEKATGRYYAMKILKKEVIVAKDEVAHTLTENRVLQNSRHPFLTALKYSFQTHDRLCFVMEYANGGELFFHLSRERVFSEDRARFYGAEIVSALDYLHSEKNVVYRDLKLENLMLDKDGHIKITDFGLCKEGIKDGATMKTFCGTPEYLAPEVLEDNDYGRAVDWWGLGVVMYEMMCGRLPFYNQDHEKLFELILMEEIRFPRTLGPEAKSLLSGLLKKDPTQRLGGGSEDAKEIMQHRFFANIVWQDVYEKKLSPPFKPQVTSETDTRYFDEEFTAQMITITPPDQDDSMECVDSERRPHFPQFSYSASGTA

With `COC(=O)[C@]1(O)C[C@@H](OC(=O)/C=C/c2ccc(O)c(O)c2)[C@H](O)[C@H](OC(=O)/C=C/c2ccc(O)c(O)c2)C1` the inhibition (BMDM [1]) was “Active”, the inhibition (BMDM [2]) was “Active” and the inhibition (BMDM [3]) was “Active”. For the same compound, the Activity (Osteoclast) was “inactive”, the inhibition [4] was “Active” and the inhibition (BMDM [5]) was “Active”. The inhibition (BMDM [6]) was “Active”, the inhibition (BMDM [7]) was “Active” and the inhibition (BMDM [8]) was “Active”. The inhibition (BMDM [9]) was “Active”, the inhibition at 1 µM (BMDM [10]) was 78% and the “growth inhibition (GI)” value (BMDM [11]) was “Non-Toxic”. For the same compound, the inhibition (BMDM [12]) was “Active”, the inhibition (BMDM [13]) was “Active” and the inhibition [14] was “Active”. The inhibition (BMDM [15]) was “Active”.

Reference: ChEMBL document CHEMBL4118133, “Inhibitory effects of methyl-3,5-di-O-caffeoyl-epi-quinate on RANKL-induced osteoclast differentiation” (Bioorg Med Chem Lett, 2018)
